Results reported in ChEMBL document CHEMBL1833897, “Lead generation of heat shock protein 90 inhibitors by a combination of fragment-based approach, virtual screening, and structure-based drug design” (Bioorg Med Chem Lett, 2011).

Experiments:
[1] = target: T1, Heat shock protein HSP 90-alpha (Homo sapiens, UniProt P07900)
Description: Binding affinity to human HSP90alpha assessed as 2D1H-15N chemical shift perturbation by NMR spectroscopy

[2] = target: T1, Heat shock protein HSP 90-alpha; remark: listed apart in the source
Description: Inhibition of human N-terminal GST-tagged HSP90alpha expressed in Escherichia coli after 1 hr using 10 mM of ATP and malachite green by microplate reader

[3] = target: T1, Heat shock protein HSP 90-alpha; remark: listed apart in the source
Description: Binding affinity to biotinylated N-terminal human HSP90alpha using of streptavidin coated surface by SPR binding assay

Compound	Kd [1] [µM]	IC50 [2] [µM]	Kd [3] [µM]
CC(=O)c1cnc(N)nc1C	> 1		
Nc1cnccn1	79		
CSc1nc(N)nc(SCc2ccccc2)n1		16	
Oc1ccc2c(c1)CCc1c[nH]nc1-2			0.75
CSc1nc(N)nc(-c2ccncc2)n1	> 1		
Nc1ncncn1	10		
Nc1ccncn1	300		

Other lines, results leading:

Kd [1] [µM]	IC50 [2] [µM]	Kd [3] [µM]	Compound
4.5	0.57		CSc1nc(N)nc(-c2ccccc2C)n1
0.57			Nc1nccc(-c2nccs2)n1
51	31		CSc1nc(N)nc(-c2ccccc2)n1
3.7	24		CSc1nc(N)nc(SCc2ccc(Cl)cc2)n1
0.33			Nc1ncc2c(n1)-c1ccoc1CC2
2.3	33		CSc1nc(N)nc(SCCN2CCOCC2)n1
0.34			CCCc1nc(N)ncc1C(=O)OCC
